“Also recorded” adds a separate entry of the source.
System: glycosyltransferase LbUGT71BX1
Test: in-vitro enzyme activity testing of recombinant LbUGT71BX1 with flavonoid substrates and UDP-sugar donors (LC-Q-TOF-MS)
Assay type: biochemical, Laportea bulbifera
Settings: purified recombinant enzyme, 37° C., 1 hour, Tris-HCl pH 7.5, compared with pMAL-c2X empty control
Protocol: The in-vitro enzyme activity testing steps are as follows: the 50 μL reaction system contained 1 μL flavonoid substrate (40 mM) (kaempferol or myricetin or gossypetin or quercetagetin), 1 μL UDP-sugar donor (100 mM) (UDP-galactose or UDP-glucose) and […] purified enzyme, and Tris-HCl buffer (pH 7.5) was used to complement the system. With the pMAL-c2X empty crude enzyme catalytic system as a negative control, place the reaction system at 37° C. for 1 hour, and add the same volume of methanol to stop the reaction. Concentrate the above mixture in vacuo and reconstitute it with 100 μL of methanol. Perform filtration using a 0.22 m microporous membrane and transfer the sample to a liquid vial for assay. Use the Agilent 1290 Infinity II-6430 Q-TOF to test the sample. The specific liquid conditions are as follows: (1) Column: ACQUITY UPLC BEH C18 1.7 m 2.1×100 mm; (2) Mobile phase: 0.1% pure water for phase A and chromatographic acetonitrile for phase B; (3) Flow rate: 0.3 mL/min; (4) Column temperature: 40° C.; (5) Injection volume: 1.0 μL; (6) Elution conditions are shown in Table 6. The mass spectrometry conditions are: the ion mode is negative ion, the scan range is 100-3000; the mode is Automated MS/MS; the ion fragment collision energy is 20 V; the source temperature is 350° C.; the nebulizer pressure is set to 30 psi.

Structure (SMILES) | product generated from the flavonoid substrate by LbUGT71BX1 (UDP-glucose as sugar donor) | product generated from the flavonoid substrate by LbUGT71BX1 (UDP-galactose as sugar donor)
O=c1c(O)c(-c2ccc(O)c(O)c2)oc2c(O)c(O)cc(O)c12 [gossypetin] | gossypetin-3-O-glucoside | –
O=c1c(O)c(-c2ccc(O)cc2)oc2cc(O)cc(O)c12 [kaempferol] | kaempferol-3-O-glucoside | kaempferol-3-O-galactoside
O=c1c(O)c(-c2cc(O)c(O)c(O)c2)oc2cc(O)cc(O)c12 [myricetin] | myricetin-3-O-glucoside; also recorded: myricetin-7-O-glucoside | myricetin-3-O-galactoside
